Experimental findings from the supplement of paper PMC11208160 are described below.
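Also: IS621 recombinase and bridge RNA in Escherichia coli cells.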

The nature of the data set: recombinant barcode read abundance after kanamycin selection (control-corrected) (log10(CPM+1)); higher = more efficient recombination; sequences stand for … in AGTGCAGAGAAAATCGGCCAGTTTTCTCTGCCTGCAGTCCGCATGCCGT…AGATTTATGCAGCGGACTGCCTTTCTCCCAAAGTGATAAACCGGACAGTATCATGGACCGGTTTTCCCGGTAATCCGTATTTGCAAGGTTGGTTTCACT; site = the 11-nt target. A digest of the protocol: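 For this pooled screen, each oligo contained a promoter, a target, a barcode and the J23119-driven first 104 bases of the bridge RNA. Gibson cloning placed it into a vector supplying the remaining 73 bp and a T7-inducible recombinase, and the pool was co-electroporated into E. coli with a donor plasmid. Recombination efficiency is derived from barcode counts per million at recombinant junctions after averaging and control correction, and is expressed on a log scale as log10(CPM+1), with selection on chloramphenicol/ampicillin/kanamycin plus 0.1 mM IPTG against a chloramphenicol/ampicillin LB agar control.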
With “GAGCTAGCTTGGGTTCTAACCTGTTGCGT (site GAGCTAGCTGC)”, the “recombinant barcode read abundance (log10)” value amounted to 0.155.
Under “GAGGACTCTTGGGTTCTAACCTGTTGCCG (site GAGGACTCTAG)” stands 2.41; under “GAGGACTCTTGGGTTCTAACCTGTTGCCG (site GAGGACTCTCG)”, 2.32; under “GAGGACTCTTGGGTTCTAACCTGTTGCCG (site GAGGACTCTGG)”, 0.458.
With “GAGGACTCTTGGGTTCTAACCTGTTGCCG (site GAGGACTCTTG)”, the “recombinant barcode read abundance (log10)” value worked out at 0.476.
For “GAGGCTACTTGGGTTCTAACCTGTTGCAT (site ACAAGGGCTCA)”, the “recombinant barcode read abundance (log10)” value turned out to be 0.0274.
Under “GAGGCTACTTGGGTTCTAACCTGTTGCAT (site GAGGCTACTAT)” stands 1.26; under “GAGGCTCCTTGGGTTCTAACCTGTTGCCC (site GAGGCTCCTAG)”, 0.372; under “GAGGCTCCTTGGGTTCTAACCTGTTGCCC (site GAGGCTCCTCG)”, 0.174.
Under “GAGGCTCCTTGGGTTCTAACCTGTTGCCC (site GAGGCTCCTGG)” stands 1.26.
The value for “GAGGCTCCTTGGGTTCTAACCTGTTGCCC (site GAGGCTCCTTG)” was 0.104; that for “GAGGGCACTTGGGTTCTAACCTGTTGCCA (site GAGAGCACTTG)” was 0.074; that for “GAGGGCACTTGGGTTCTAACCTGTTGCCA (site GAGGGCACTTG)” was 0.917.
As to “GAGGGCCCTTGGGTTCTAACCTGTTGCTG (site GAGGGCCCTCA)”, the “recombinant barcode read abundance (log10)” value came to 2.8.
For “GAGGGCCCTTGGGTTCTAACCTGTTGCTG (site GAGGGCCCTCC)”, the “recombinant barcode read abundance (log10)” value was determined as 0.808.
Under “GAGGGCCCTTGGGTTCTAACCTGTTGCTG (site GAGGGCCCTCG)” stands 2.03.
Under “GAGGGCCCTTGGGTTCTAACCTGTTGCTG (site GAGGGCCCTCT)” stands 1.56.
Regarding “GAGGGCTCTTGGGTTCTAACCTGTTGCGG (site AGTTCACCTTA)”, the “recombinant barcode read abundance (log10)” value amounted to 0.0921.
In the case of “GAGGGCTCTTGGGTTCTAACCTGTTGCGG (site GAGGGCTCTCC)”, the “recombinant barcode read abundance (log10)” value was 2.73.
Turning to “GAGGGGTCTTGGGTTCTAACCTGTTGCAC (site CAGGCGTCTGT)”, the “recombinant barcode read abundance (log10)” value is 0.122.
Take “GAGGGGTCTTGGGTTCTAACCTGTTGCAC (site GAGGGGTCTGT)”: the “recombinant barcode read abundance (log10)” value is 2.81.
Under “GAGGGTCCTTGGGTTCTAACCTGTTGCAT (site GAGGGTCCTAA)” stands 0.573; under “GAGGGTCCTTGGGTTCTAACCTGTTGCAT (site GAGGGTCCTAC)”, 0.542; under “GAGGGTCCTTGGGTTCTAACCTGTTGCAT (site GAGGGTCCTAG)”, 1.65.
The value for “GAGGGTCCTTGGGTTCTAACCTGTTGCAT (site GAGGGTCCTAT)” was 2.74.
With “GAGGTAACTTGGGTTCTAACCTGTTGCAC (site GAGGTAACTGT)”, the “recombinant barcode read abundance (log10)” value stood at 1.66.
The value for “GAGGTAACTTGGGTTCTAACCTGTTGCAC (site TGTACGCCTAG)” was 0.0446; that for “GAGGTAACTTGGGTTCTAACCTGTTGCCT (site GAAGTAACTAG)” was 0.0669; that for “GAGGTAACTTGGGTTCTAACCTGTTGCCT (site GACGTAACTAG)” was 1.23.
The value for “GAGGTAACTTGGGTTCTAACCTGTTGCCT (site GAGGTAACTAG)” was 0.0487.
Under “GAGGTAACTTGGGTTCTAACCTGTTGCCT (site GATGTAACTAG)” stands 0.822; under “GAGTACTCTTGGGTTCTAACCTGTTGCTA (site GAGTACTCTTA)”, 1.8.
Consider “GAGTACTCTTGGGTTCTAACCTGTTGCTA (site GAGTCTTCTTA)”, for which the “recombinant barcode read abundance (log10)” value turned out to be 0.00735.
The value for “GAGTAGTCTTGGGTTCTAACCTGTTGCTT (site GAGTAGACTAA)” was 0.941.
“GAGTAGTCTTGGGTTCTAACCTGTTGCTT (site GAGTAGTCTAA)”: the “recombinant barcode read abundance (log10)” value amounted to 2.05.
The value for “GAGTCGTCTTGGGTTCTAACCTGTTGCTT (site GAGCCATCTAA)” was 0.402.
As to “GAGTCGTCTTGGGTTCTAACCTGTTGCTT (site GAGTCGTCTAA)”, the “recombinant barcode read abundance (log10)” value was 1.45.
As for “GAGTGAACTTGGGTTCTAACCTGTTGCCA (site GAGTGAACTTG)”, the “recombinant barcode read abundance (log10)” value was 0.849.
Consider “GAGTGAACTTGGGTTCTAACCTGTTGCCA (site GTGTGTACTTG)”, for which the “recombinant barcode read abundance (log10)” value was found to be 0.435.
Turning to “GAGTGCCCTTGGGTTCTAACCTGTTGCTT (site GAGTGCCCTAA)”, the “recombinant barcode read abundance (log10)” value turned out to be 0.78.
The value for “GAGTGCCCTTGGGTTCTAACCTGTTGCTT (site GTGTGGCCTAA)” was 0.128; that for “GAGTGGCCTTGGGTTCTAACCTGTTGCAT (site GAGTGGCCTAA)” was 0.242.
Under “GAGTGGCCTTGGGTTCTAACCTGTTGCAT (site GAGTGGCCTAC)” stands 0.385.
Under “GAGTGGCCTTGGGTTCTAACCTGTTGCAT (site GAGTGGCCTAG)” stands 0.318; under “GAGTGGCCTTGGGTTCTAACCTGTTGCAT (site GAGTGGCCTAT)”, 0.883; under “GAGTGGCCTTGGGTTCTAACCTGTTGCGG (site GAGTAGCCTCC)”, 0.831.
As to “GAGTGGCCTTGGGTTCTAACCTGTTGCGG (site GAGTCGCCTCC)”, the “recombinant barcode read abundance (log10)” value was 0.0473.
The value for “GAGTGGCCTTGGGTTCTAACCTGTTGCGG (site GAGTGGCCTCC)” was 1.84; that for “GAGTGGCCTTGGGTTCTAACCTGTTGCGG (site GAGTTGCCTCC)” was 0.00446.
Under “GAGTGGCCTTGGGTTCTAACCTGTTGCTT (site GAGTGGCCTAA)” stands 1.54.
On to “GAGTGGCCTTGGGTTCTAACCTGTTGCTT (site GAGTGGCCTAC)”, for which the “recombinant barcode read abundance (log10)” value was 0.494.
The value for “GAGTGGCCTTGGGTTCTAACCTGTTGCTT (site GAGTGGCCTAG)” was 0.068.
The value for “GAGTGGCCTTGGGTTCTAACCTGTTGCTT (site GAGTGGCCTAT)” was 0.541; that for “GAGTTACCTTGGGTTCTAACCTGTTGCGT (site GAGTTACCTAC)” was 2.6; that for “GAGTTACCTTGGGTTCTAACCTGTTGCGT (site GAGTTCCCTAC)” was 0.192.
Under “GAGTTACCTTGGGTTCTAACCTGTTGCGT (site GAGTTGCCTAC)” stands 0.229; under “GAGTTACCTTGGGTTCTAACCTGTTGCGT (site GAGTTTCCTAC)”, 0.0625; under “GAGTTCACTTGGGTTCTAACCTGTTGCCT (site GAGTTCACTAG)”, 0.618.
“GAGTTCACTTGGGTTCTAACCTGTTGCCT (site GGGTTCACTCG)”: the “recombinant barcode read abundance (log10)” value was 0.0995.
Consider “GAGTTCGCTTGGGTTCTAACCTGTTGCGG (site GAGTTCGCTCC)”, for which the “recombinant barcode read abundance (log10)” value is 1.08.
The value for “GAGTTCGCTTGGGTTCTAACCTGTTGCGG (site TAGTCCGCTCC)” was 0.
Under “GAGTTGTCTTGGGTTCTAACCTGTTGCGG (site CTCGCCACTAG)” stands 0.0798.
The value for “GAGTTGTCTTGGGTTCTAACCTGTTGCGG (site GAGTTGTCTCC)” was 1.83; that for “GATAACGCTTGGGTTCTAACCTGTTGCCT (site ATGGTACCTTA)” was 0.0115; that for “GATAACGCTTGGGTTCTAACCTGTTGCCT (site GATAACGCTAG)” was 1.05.
For “GATACGCCTTGGGTTCTAACCTGTTGCCT (site GATACGACTAG)”, the “recombinant barcode read abundance (log10)” value amounted to 0.0197.
The value for “GATACGCCTTGGGTTCTAACCTGTTGCCT (site GATACGCCTAG)” was 0.134.
“GATACGCCTTGGGTTCTAACCTGTTGCCT (site GATACGGCTAG)”: the “recombinant barcode read abundance (log10)” value was determined as 0.167.
Under “GATACGCCTTGGGTTCTAACCTGTTGCCT (site GATACGTCTAG)” stands 0.139; under “GATACGTCTTGGGTTCTAACCTGTTGCCT (site GATACGACTAG)”, 0.352.
Take “GATACGTCTTGGGTTCTAACCTGTTGCCT (site GATACGCCTAG)”: the “recombinant barcode read abundance (log10)” value came to 0.187.
For the sequence “GATACGTCTTGGGTTCTAACCTGTTGCCT (site GATACGGCTAG)”, the “recombinant barcode read abundance (log10)” value worked out at 0.195.
The value for “GATACGTCTTGGGTTCTAACCTGTTGCCT (site GATACGTCTAG)” was 0.623.
Under “GATAGAACTTGGGTTCTAACCTGTTGCTT (site GAGAGGACTAA)” stands 0.204; under “GATAGAACTTGGGTTCTAACCTGTTGCTT (site GATAGAACTAA)”, 0.94.
Take “GATAGGACTTGGGTTCTAACCTGTTGCCT (site GATAGGACTAG)”: the “recombinant barcode read abundance (log10)” value worked out at 0.647.
The value for “GATAGGACTTGGGTTCTAACCTGTTGCCT (site GATGGGACTCG)” was 0.
